Source: paper PMC11984905, “Chiral Switch of Gadopiclenol: New Standards in MRI Probes” (Advanced Science, 2025)

What was measured:
[1] = Eu^3+ complex, 0.1 M Me4NCl, 25 °C, cited from earlier work
[2] = 0.1 M Me4NCl, 25 °C; cited from earlier work
[3] = Biodistribution and in vivo dynamic T1-weighted MRI; set-up: species or system A/J healthy mice; details: 0.1 mmol Gd/kg i.v.
Protocol: Dynamic T 1‐weighted MRI on twelve A/J healthy mice was used to compare the biodistribution of ([Gd(ent‐L2)] and [Gd(BT‐DO3A)] (Gadovist), n = 6 animals each), administered at 0.1 mmol Gd/kg. The MRI monitored the distribution within abdominal tissues for up to 1 h post‐administration MRI images and the pharmacokinetic curves are shown in Figure 6 .
All the procedures and the experiments were conducted according to the national and international laws on experimental animal research (L.D. 26/2014; Directive 2010/63/EU) and under a specific Italian Ministerial Authorization (project research number 46/2015‐PR). Twelve A/J healthy mice (females, 6–7 weeks old, supplied by Envigo RMS S.r.l.) were housed in a controlled environment (22°C, 55% humidity, 15–20 air changes/hour, 12‐h light/dark cycle) with ad libitum access to VRF1 (P) certified pellets and filtered water. To minimize discomfort, the animals were socially housed with enrichment items. Veterinary care was available throughout the study to alleviate any potential pain or distress following procedures. […] The animals were randomly assigned to two experimental groups (n = 6 each, with sample size confirmed via GPower) and underwent to Magnetic Resonance Imaging (MRI) experiments performed using a BioSpec 47/30 preclinical scanner (Bruker Biospin, Ettlingen, Germany) operating at […] (i.e., at a proton Larmor frequency of 125 MHz) and equipped with two‐channel 35 mm RF volume coil. During MRI experiments, all the animals were anaesthetized with isoflurane gas (≈1%) in O2. Anaesthesia was maintained by adjustment of gas level as a function of breath rate. Before injection of each test article, T 1‐weighted spin echo sequences were acquired on the animal in order to check the position of the animal. A series of T 1‐weighted 3D gradient echoscans (repetition time = 50 ms, flip angle = 50°, echo time = 2.8 ms, number of averages = 2, matrix size (3D) = 192 × 192 × 8, field of view = 2.5 × 2.5 × 1.2 cm, acquisition time = 154 s) were then acquired before and after the intravenous administration of a 50 mM saline solution (0.9%) of [Gd(ent‐L2)] (n = 6 mice) and [Gd(BT‐DO3A)] (Gadovist, Bayer Schering, Germany) (n = 6 mice) at an injection rate of ≈2 mL/min through a catheter placed in the tail vein of the animal. Both [Gd(ent‐L2)] and [Gd(BT‐DO3A)] were administered at a dose of 0.1 mmol Gd/kg corresponding to an administration volume of 2 mL kg^−1. The kinetics of the Gd(III)‐complexes was followed up to 60 min post‐injection. After imaging was performed, the mouse was removed from the scanner and returned to the Animal Facility room. At the end of the study all animals were sacrificed by overdose of anaesthesia and cervical dislocation. Unblinded image analysis was performed by positioning the region of interest (ROIs) over liver, kidney, muscle, and blood vessel. ROIs positioning and signal quantification was performed by using a home‐developed plugin, running on Image J.^[ [51] ^]
Signal enhancement (Enh) was calculated using the formula: Enh = 100×(SignalpostCA ‐SignalpreCA)/SignalpreCA, where SignalpreCA and SignalpostCA denote the MR signal before and after administration of contrast agents, respectively. Data were presented as mean ± standard deviation (SD). The sample size (n = 6 per group) was determined a priori using GPower software to ensure adequate statistical power. The Levene's test was employed to assess the homogeneity of variances among groups. For comparisons where homogeneity of variance was confirmed, a one‐way ANalysis Of VAriance (ANOVA) was applied to test the null hypothesis that treatment groups originate from the same distribution. Post‐hoc pairwise multiple comparisons were performed using Tukey's method when significant differences were detected. Statistical analyses and data visualization were conducted using Mathematica (Wolfram, USA), while summary statistics (mean, SD, and standard error) were calculated using Microsoft Excel (USA). […]

SMILES | pGd (Eu^3+) ([1]; 1 µM metal, 10 µM L, pH 7.4) | logK GdL (Eu^3+) [1] | logKGdH2L (Eu^3+) [1] | logKGdH3L (Eu^3+) [1] | logKGdHL (Eu^3+) [1] | logK^c GdL (Eu^3+) ([1]; pH 7.4) | logK1^H [2] | logK2^H [2] | logK3^H [2] | logK4^H [2] | logK5^H [2] | logK6^H [2] | logK7^H [2] | ΣlogKi^H [2] | elimination pathway [3] | average maximum signal enhancement in the liver ([3]; 3 T, n = 6) | wash-in and wash-out kinetics ([3]; up to 1 h post-administration) | maximum signal enhancement in the blood compartment, times higher than that of [Gd(BT-DO3A)] ([3]; same dose, 3 T, significance level 0.1%) | decrease in signal enhancement in the blood compartment ([3]; within 30 min, 3 T) [%]
O=C(O)CCC(C(=O)O)N1CCN(C(CCC(=O)O)C(=O)O)Cc2cccc(n2)CN(C(CCC(=O)O)C(=O)O)CC1 (racemic) [rac‐L1, 2,2’,2’’-[3,6,9,15-tetraazabicyclo[9.3.1]pentadeca-1(15),11,13-triene-3,6,9-triyl]tripentanedioic acid] | 16.06 | 18.66 | 4.54 | 4.12 | 5.34 | 15.10 | 10.85 | 6.86 | 5.37 | 4.77 | 4.24 | 3.4 | 1.92 | 37.50 |  |  |  |  | 
O=C(CCC(C(=O)[O-])N1CCN(C(CCC(=O)NCC(O)CO)C(=O)[O-])Cc2cccc(n2)CN(C(CCC(=O)NCC(O)CO)C(=O)[O-])CC1)NCC(O)CO.[Gd+3] (stereo not drawn) [[Gd(ent‐L2)]] |  |  |  |  |  |  |  |  |  |  |  |  |  |  | renal elimination remains the primary pathway | ≈ 210% | rapid wash‐in and wash‐out | ≈ 2 times | ≥ 50
